This note sets out measurements from PubChem BioAssay (NCI).

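96-well plates; 48 h exposure; 5 concentrations. Endpoints by linear interpolation between flanking doses. Not reached: highest tested concentration assigned. Definition used: TGI = concentration required for complete inhibition of growth.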

For one assay, the system named is ACHN renal. In words: NCI anticancer screen, dose series, 48 h.
The compound `CC(=O)OCC(C)C1=C(O)C(=O)C2(C)C/C=C(/C)CC/C=C(\C)CCC(O)C(C)CCC12` (stereo not drawn) registered a TGI of 30.9 µM.
Still for that read-out and setting: then `CC(C)OP(=O)(OC(C)C)c1c(Nc2ccccc2)n[nH]c1N`, with more than 100 µM; and `CC(C)(C)C1=C(Br)C(Br)(C(C)(C)C)OP1(=O)c1ccccc1` (stereo not drawn), with more than 100 µM; and `CC1(C)OCC(COC(=O)C=[N+]=[N-])O1` (stereo not drawn), with more than 100 µM.

For the next assay, the system named is 786-0 renal. Description: NCI anticancer screen, dose series, 48 h.
In the case of `CC(=O)OCC(C)C1=C(O)C(=O)C2(C)C/C=C(/C)CC/C=C(\C)CCC(O)C(C)CCC12` (stereo not drawn), the TGI turned out to be 32 µM.
`CC(C)(C)C1=C(Br)C(Br)(C(C)(C)C)OP1(=O)c1ccccc1` (stereo not drawn) returned a TGI of more than 100 µM.
`CC1(C)OCC(COC(=O)C=[N+]=[N-])O1` (stereo not drawn) came in with a TGI of more than 100 µM.

In another assay the test system is SF-539 CNS. Description: NCI anticancer screen, dose series, 48 h.
For `CC(=O)OCC(C)C1=C(O)C(=O)C2(C)C/C=C(/C)CC/C=C(\C)CCC(O)C(C)CCC12` (stereo not drawn), the TGI was found to be 31 µM.
Still for that read-out and setting: then `CC(C)OP(=O)(OC(C)C)c1c(Nc2ccccc2)n[nH]c1N`, with more than 100 µM; and `CC(C)(C)C1=C(Br)C(Br)(C(C)(C)C)OP1(=O)c1ccccc1` (stereo not drawn), with more than 100 µM.

Another assay has as its system HCT-15 colon. Description: NCI anticancer screen, dose series, 48 h.
`CC(=O)OCC(C)C1=C(O)C(=O)C2(C)C/C=C(/C)CC/C=C(\C)CCC(O)C(C)CCC12` (stereo not drawn) registered a TGI of 36.2 µM.
As for `CC(C)OP(=O)(OC(C)C)c1c(Nc2ccccc2)n[nH]c1N`, the TGI was more than 100 µM.
In turn, `CC(C)(C)C1=C(Br)C(Br)(C(C)(C)C)OP1(=O)c1ccccc1` (stereo not drawn) showed a TGI of more than 100 µM.
Compound `CC1(C)OCC(COC(=O)C=[N+]=[N-])O1` (stereo not drawn) had a TGI of more than 100 µM.

For another assay, the system named is OVCAR-3 ovarian. Description: NCI anticancer screen, dose series, 48 h.
Compound `CC(=O)OCC(C)C1=C(O)C(=O)C2(C)C/C=C(/C)CC/C=C(\C)CCC(O)C(C)CCC12` (stereo not drawn) displayed a TGI of 29.3 µM.
Compound `CC(C)OP(=O)(OC(C)C)c1c(Nc2ccccc2)n[nH]c1N` had a TGI of more than 100 µM.
Compound `CC(C)(C)C1=C(Br)C(Br)(C(C)(C)C)OP1(=O)c1ccccc1` (stereo not drawn) showed a TGI of more than 100 µM.
`CC1(C)OCC(COC(=O)C=[N+]=[N-])O1` (stereo not drawn): the TGI was more than 100 µM.

The subject of the next assay is BT-549 breast. Description: NCI anticancer screen, dose series, 48 h.
Turning to `CC1(C)OCC(COC(=O)C=[N+]=[N-])O1` (stereo not drawn), the TGI was more than 100 µM.

A further assay has as its system T-47D breast. Description: NCI anticancer screen, dose series, 48 h.
Regarding `CC(=O)OCC(C)C1=C(O)C(=O)C2(C)C/C=C(/C)CC/C=C(\C)CCC(O)C(C)CCC12` (stereo not drawn), the TGI was determined as 14.9 µM.
`CC(C)OP(=O)(OC(C)C)c1c(Nc2ccccc2)n[nH]c1N` registered a TGI of more than 100 µM.
In turn, `CC(C)(C)C1=C(Br)C(Br)(C(C)(C)C)OP1(=O)c1ccccc1` (stereo not drawn) displayed a TGI of more than 100 µM.

The subject of another assay is SK-MEL-5 melanoma. Description: NCI anticancer screen, dose series, 48 h.
With `CC(=O)OCC(C)C1=C(O)C(=O)C2(C)C/C=C(/C)CC/C=C(\C)CCC(O)C(C)CCC12` (stereo not drawn), the TGI is 32.1 µM.
`CC(C)OP(=O)(OC(C)C)c1c(Nc2ccccc2)n[nH]c1N` registered a TGI of more than 100 µM.
On the same count and under the same terms, for `CC(C)(C)C1=C(Br)C(Br)(C(C)(C)C)OP1(=O)c1ccccc1` (stereo not drawn) the value was more than 100 µM.
Still for that read-out and setting: then `CC1(C)OCC(COC(=O)C=[N+]=[N-])O1` (stereo not drawn), with more than 100 µM.

The test system of another assay is A549 NSCLC. Description: NCI anticancer screen, dose series, 48 h.
Take `CC(=O)OCC(C)C1=C(O)C(=O)C2(C)C/C=C(/C)CC/C=C(\C)CCC(O)C(C)CCC12` (stereo not drawn): the TGI stood at 33.8 µM.
Compound `CC(C)OP(=O)(OC(C)C)c1c(Nc2ccccc2)n[nH]c1N` gave a TGI of more than 100 µM.
Same read-out and setting: for `CC(C)(C)C1=C(Br)C(Br)(C(C)(C)C)OP1(=O)c1ccccc1` (stereo not drawn) the value was more than 100 µM.

The subject of the next assay is PC-3 prostate. Description: NCI anticancer screen, dose series, 48 h.
As to `CC(=O)OCC(C)C1=C(O)C(=O)C2(C)C/C=C(/C)CC/C=C(\C)CCC(O)C(C)CCC12` (stereo not drawn), the TGI amounted to 38.1 µM.
With `CC(C)OP(=O)(OC(C)C)c1c(Nc2ccccc2)n[nH]c1N`, the TGI is more than 100 µM.
`CC(C)(C)C1=C(Br)C(Br)(C(C)(C)C)OP1(=O)c1ccccc1` (stereo not drawn) returned a TGI of more than 100 µM.
Take `CC1(C)OCC(COC(=O)C=[N+]=[N-])O1` (stereo not drawn): the TGI is more than 100 µM.

Another assay has as its system A498 renal. In words: NCI anticancer screen, dose series, 48 h.
The compound `CC(=O)OCC(C)C1=C(O)C(=O)C2(C)C/C=C(/C)CC/C=C(\C)CCC(O)C(C)CCC12` (stereo not drawn) returned a TGI of 36 µM.
`CC(C)OP(=O)(OC(C)C)c1c(Nc2ccccc2)n[nH]c1N` came in with a TGI of more than 100 µM.
`CC(C)(C)C1=C(Br)C(Br)(C(C)(C)C)OP1(=O)c1ccccc1` (stereo not drawn) registered a TGI of more than 100 µM.
`CC1(C)OCC(COC(=O)C=[N+]=[N-])O1` (stereo not drawn) returned a TGI of more than 100 µM.

In a further assay the test system is OVCAR-8 ovarian. Description: NCI anticancer screen, dose series, 48 h.
`CC(=O)OCC(C)C1=C(O)C(=O)C2(C)C/C=C(/C)CC/C=C(\C)CCC(O)C(C)CCC12` (stereo not drawn) showed a TGI of 46.6 µM.
`CC(C)OP(=O)(OC(C)C)c1c(Nc2ccccc2)n[nH]c1N` registered a TGI of more than 100 µM.
For the compound `CC(C)(C)C1=C(Br)C(Br)(C(C)(C)C)OP1(=O)c1ccccc1` (stereo not drawn), the TGI was more than 100 µM.

The test system of the next assay is RXF 393 renal. Description: NCI anticancer screen, dose series, 48 h.
Consider `CC(=O)OCC(C)C1=C(O)C(=O)C2(C)C/C=C(/C)CC/C=C(\C)CCC(O)C(C)CCC12` (stereo not drawn), for which the TGI was found to be 27.4 µM.
For the compound `CC(C)OP(=O)(OC(C)C)c1c(Nc2ccccc2)n[nH]c1N`, the TGI was more than 100 µM.
As to `CC(C)(C)C1=C(Br)C(Br)(C(C)(C)C)OP1(=O)c1ccccc1` (stereo not drawn), the TGI was more than 100 µM.
For `CC1(C)OCC(COC(=O)C=[N+]=[N-])O1` (stereo not drawn), the TGI is more than 100 µM.

A further assay relates to SW-620 colon. In words: NCI anticancer screen, dose series, 48 h.
`CC(=O)OCC(C)C1=C(O)C(=O)C2(C)C/C=C(/C)CC/C=C(\C)CCC(O)C(C)CCC12` (stereo not drawn) displayed a TGI of 37.8 µM.
In the case of `CC(C)OP(=O)(OC(C)C)c1c(Nc2ccccc2)n[nH]c1N`, the TGI is more than 100 µM.
With `CC(C)(C)C1=C(Br)C(Br)(C(C)(C)C)OP1(=O)c1ccccc1` (stereo not drawn), the TGI is more than 100 µM.
As to `CC1(C)OCC(COC(=O)C=[N+]=[N-])O1` (stereo not drawn), the TGI was more than 100 µM.

The test system of a further assay is MOLT-4 leukemia. Description: NCI anticancer screen, dose series, 48 h.
In turn, `CC(=O)OCC(C)C1=C(O)C(=O)C2(C)C/C=C(/C)CC/C=C(\C)CCC(O)C(C)CCC12` (stereo not drawn) had a TGI of 28.6 µM.
The compound `CC(C)OP(=O)(OC(C)C)c1c(Nc2ccccc2)n[nH]c1N` came in with a TGI of more than 100 µM.
As to `CC1(C)OCC(COC(=O)C=[N+]=[N-])O1` (stereo not drawn), the TGI is more than 100 µM.

Another assay relates to NCI-H226 lung. Description: NCI anticancer screen, dose series, 48 h.
The compound `CC(=O)OCC(C)C1=C(O)C(=O)C2(C)C/C=C(/C)CC/C=C(\C)CCC(O)C(C)CCC12` (stereo not drawn) yielded a TGI of 33.5 µM.
The compound `CC(C)OP(=O)(OC(C)C)c1c(Nc2ccccc2)n[nH]c1N` registered a TGI of more than 100 µM.
